Activity calls are given as the source filed them. The rule behind the calls is not given here.
Legend:
[1] = tested on: Nicotiana tabacum; assay: Induction of systemic acquired resistance against Oidium in Nicotiana tabacum cv. Xanthi nc (tobacco) assessed as decrease in lesion size applied as soil-drench 5 days prior to infection measured after 5 days; type: functional, organism-based
[2] = tested on: Nicotiana tabacum; assay: Induction of N-gene mediated systemic acquired resistance against TMV in Nicotiana tabacum cv. Xanthi nc (tobacco) assessed as decrease in lesion size at 0.1 mg/pot applied by soil-drench 5 days prior to infection measured after 5 days relative to control; type: functional, organism-based
[3] = tested on: Pseudomonas amygdali pv. tabaci; assay: Antibacterial activity against Pseudomonas syringae pv. tabaci up to 500 ug/ml; type: functional, organism-based
[4] = tested on: Nicotiana tabacum; assay: Induction of systemic acquired resistance against Pseudomonas syringae pv. tabaci in Nicotiana tabacum cv. Xanthi nc (tobacco) assessed as decrease in Nicotiana tabacum (tobacco) wildfire disease symptoms at 1 to 2 mg/pot applied as soil-drench 5 days prior to infection measured after 3 days relative to control; type: functional, organism-based
[5] = tested on: Nicotiana tabacum; assay: Induction of N-gene mediated systemic acquired resistance against TMV in Nicotiana tabacum cv. Xanthi nc (tobacco) assessed as lesion size at 0.1 mg/pot applied by soil-drench 5 days prior to infection measured after 5 days relative to control; type: functional
[6] = tested on: Nicotiana tabacum; assay: (§1) Induction of systemic acquired resistance against Pseudomonas syringae pv. tabaci in Nicotiana tabacum cv. Xanthi nc (tobacco) assessed as inhibition of bacterial growth in infected tissues at 1 to 2 mg/pot applied as soil-drench 5 days prior to infection measured after 3 days relative to control; type: functional, organism-based
[7] = tested on: Nicotiana tabacum; assay: Induction of N-gene mediated systemic acquired resistance against TMV in Nicotiana tabacum cv. Xanthi nc (tobacco) assessed as lesion size at 10 mg/pot applied by soil-drench 5 days prior to infection measured after 5 days relative to control; type: functional
[8] = tested on: Nicotiana tabacum; assay: Induction of N-gene mediated systemic acquired resistance against TMV in Nicotiana tabacum cv. Xanthi nc (tobacco) assessed as lesion size at 1 mg/pot applied by soil-drench 5 days prior to infection measured after 5 days relative to control; type: functional
[9] = tested on: Nicotiana tabacum; assay: Induction of systemic acquired resistance in Nicotiana tabacum cv. Xanthi nc (tobacco) assessed as effect on total salicylic acid level in leaves at 1 mg/pot applied as soil-drench measured up to 7 days by fluorometric analysis relative to control; type: functional, organism-based
[10] = tested on: Nicotiana tabacum; assay: Induction of systemic acquired resistance in Nicotiana tabacum cv. Xanthi nc (tobacco) assessed as effect on free salicylic acid level in leaves at 1 mg/pot applied as soil-drench measured up to 7 days by fluorometric analysis relative to control; type: functional, organism-based
[11] = tested on: Nicotiana tabacum; assay: Induction of systemic acquired resistance in transgenic Nicotiana tabacum cv. Xanthi nc (tobacco) expressing bacterial NahG assessed as increase in PR1 mRNA level at 0.01 to 0.5 mg/ml applied as foliar spray measured after 4 days by Northern blot analysis relative to control; type: functional, organism-based
[12] = tested on: Nicotiana tabacum; assay: Induction of systemic acquired resistance in transgenic Nicotiana tabacum cv. Xanthi nc (tobacco) expressing bacterial NahG assessed as increase in PR1 mRNA level at 1 to 2 mg/pot applied as soil-drench measured after 4 days by Northern blot analysis relative to control; type: functional, organism-based
[13] = tested on: Nicotiana tabacum; assay: as §1, with “tabaci in transgenic Nicotiana tabacum” for “tabaci in Nicotiana tabacum”, “nc (tobacco) expressing bacterial NahG assessed as” for “nc (tobacco) assessed as”; type: functional, organism-based
[14] = tested on: Nicotiana tabacum; assay: Induction of N-gene mediated systemic acquired resistance against TMV in transgenic Nicotiana tabacum cv. Xanthi nc (tobacco) expressing bacterial NahG assessed as decrease in lesion size at 0.1 to 2 mg/pot applied by soil-drench 5 days prior to infection measured after 5 days relative to control; type: functional, organism-based
[15] = tested on: Nicotiana tabacum; assay: Induction of systemic acquired resistance in Nicotiana tabacum cv. Xanthi nc (tobacco) assessed as increase in PR5 mRNA level at 0.01 to 0.5 mg/ml applied as foliar spray measured after 4 days by Northern blot analysis relative to control; type: functional, organism-based
[16] = tested on: Nicotiana tabacum; assay: Induction of systemic acquired resistance in Nicotiana tabacum cv. Xanthi nc (tobacco) assessed as increase in PR2 mRNA level at 0.01 to 0.5 mg/ml applied as foliar spray measured after 4 days by Northern blot analysis relative to control; type: functional, organism-based
[17] = tested on: Nicotiana tabacum; assay: Induction of systemic acquired resistance in Nicotiana tabacum cv. Xanthi nc (tobacco) assessed as increase in PR1 mRNA level at 0.01 to 0.5 mg/ml applied as foliar spray measured after 4 days by Northern blot analysis relative to control; type: functional, organism-based
[18] = tested on: Nicotiana tabacum; assay: Induction of systemic acquired resistance in Nicotiana tabacum cv. Xanthi nc (tobacco) assessed as increase in PR1 mRNA level at 1 mg/pot applied as soil-drench measured after 24 hr by Northern blot analysis relative to control; type: functional, organism-based
[19] = tested on: Nicotiana tabacum; assay: Induction of systemic acquired resistance in Nicotiana tabacum cv. Xanthi nc (tobacco) assessed as increase in PR5 mRNA level at 1 to 2 mg/pot applied as soil-drench measured after 4 days by Northern blot analysis relative to control; type: functional, organism-based
[20] = tested on: Nicotiana tabacum; assay: Induction of systemic acquired resistance in Nicotiana tabacum cv. Xanthi nc (tobacco) assessed as increase in PR2 mRNA level at 1 to 2 mg/pot applied as soil-drench measured after 4 days by Northern blot analysis relative to control; type: functional, organism-based
[21] = tested on: Nicotiana tabacum; assay: Induction of systemic acquired resistance in Nicotiana tabacum cv. Xanthi nc (tobacco) assessed as increase in PR1 mRNA level at 1 to 2 mg/pot applied as soil-drench measured after 4 days by Northern blot analysis relative to control; type: functional, organism-based

In the case of CSC(=O)c1cccc2nnsc12, the Activity [1] is reported as “Dose-dependent effect” and the Activity [2] is reported as “Active”.
Cn1nc(Cl)cc1C(=O)O [3-CHLORO-1-METHYL-1H-PYRAZOLE-5-CARBOXYLIC ACID] was tested, and the Activity [1] was “Dose-dependent effect”, the Activity [3] was “inactive” and the Activity [4] was “Active”. For the same compound, the Activity [5] was 50%, the Activity [6] was “Active” and the Activity [7] was <10%. The Activity [8] was <10%, the Activity [9] was “inactive” and the Activity [10] was “inactive”. The Activity [11] was “Active”, the Activity [12] was “Active” and the Activity [13] was “Active”. For the same compound, the Activity [14] was “Active”, the Activity [15] was “Active” and the Activity [16] was “Active”. For the same compound, the Activity [17] was “Active”, the Activity [18] was “Active” and the Activity [19] was “Active”. For the same compound, the Activity [20] was “Active” and the Activity [21] was “Active”.

Reference: ChEMBL document CHEMBL3044732, “Pyrazolecarboxylic acid derivative induces systemic acquired resistance in tobacco” (2003)
